For this assay, the target named is HiBit-WIZ fusion protein (Homo sapiens, UniProt O95785+Q96SW2). Kind of assay: Quantification of WIZ protein levels in HiBit tag fusion protein assay (WIZ HiBit assay in 293T cells). The format is cell-based. Further details: Dmax: dose or concentration left out as unconfirmed. Conditions: for Dmax / remaining activity at up to 25 µM / remaining activity: HEK-293T, 293T cells; for remaining activity at up to 25 µM: DMSO-normalized, curve-fitted percentage of WIZ-HiBit remaining at 25 uM, read-out: WIZ Amax; for DC50: WIZ HiBit assay in 293T cells, 10-point, 5-fold dose response, highest concentration 25 μM, about 18 hours, read-out: WIZ AC50; for remaining activity: read-out: WIZ Amax, DMSO-normalized, curve-fitted percentage of WIZ-HiBit remaining at 25 uM. Background: HiBiT is a short tag that completes a luciferase, so light tracks the accessible tagged protein.
Chain of HiBit-WIZ fusion protein (O95785 whole entry, the tested form may be a part): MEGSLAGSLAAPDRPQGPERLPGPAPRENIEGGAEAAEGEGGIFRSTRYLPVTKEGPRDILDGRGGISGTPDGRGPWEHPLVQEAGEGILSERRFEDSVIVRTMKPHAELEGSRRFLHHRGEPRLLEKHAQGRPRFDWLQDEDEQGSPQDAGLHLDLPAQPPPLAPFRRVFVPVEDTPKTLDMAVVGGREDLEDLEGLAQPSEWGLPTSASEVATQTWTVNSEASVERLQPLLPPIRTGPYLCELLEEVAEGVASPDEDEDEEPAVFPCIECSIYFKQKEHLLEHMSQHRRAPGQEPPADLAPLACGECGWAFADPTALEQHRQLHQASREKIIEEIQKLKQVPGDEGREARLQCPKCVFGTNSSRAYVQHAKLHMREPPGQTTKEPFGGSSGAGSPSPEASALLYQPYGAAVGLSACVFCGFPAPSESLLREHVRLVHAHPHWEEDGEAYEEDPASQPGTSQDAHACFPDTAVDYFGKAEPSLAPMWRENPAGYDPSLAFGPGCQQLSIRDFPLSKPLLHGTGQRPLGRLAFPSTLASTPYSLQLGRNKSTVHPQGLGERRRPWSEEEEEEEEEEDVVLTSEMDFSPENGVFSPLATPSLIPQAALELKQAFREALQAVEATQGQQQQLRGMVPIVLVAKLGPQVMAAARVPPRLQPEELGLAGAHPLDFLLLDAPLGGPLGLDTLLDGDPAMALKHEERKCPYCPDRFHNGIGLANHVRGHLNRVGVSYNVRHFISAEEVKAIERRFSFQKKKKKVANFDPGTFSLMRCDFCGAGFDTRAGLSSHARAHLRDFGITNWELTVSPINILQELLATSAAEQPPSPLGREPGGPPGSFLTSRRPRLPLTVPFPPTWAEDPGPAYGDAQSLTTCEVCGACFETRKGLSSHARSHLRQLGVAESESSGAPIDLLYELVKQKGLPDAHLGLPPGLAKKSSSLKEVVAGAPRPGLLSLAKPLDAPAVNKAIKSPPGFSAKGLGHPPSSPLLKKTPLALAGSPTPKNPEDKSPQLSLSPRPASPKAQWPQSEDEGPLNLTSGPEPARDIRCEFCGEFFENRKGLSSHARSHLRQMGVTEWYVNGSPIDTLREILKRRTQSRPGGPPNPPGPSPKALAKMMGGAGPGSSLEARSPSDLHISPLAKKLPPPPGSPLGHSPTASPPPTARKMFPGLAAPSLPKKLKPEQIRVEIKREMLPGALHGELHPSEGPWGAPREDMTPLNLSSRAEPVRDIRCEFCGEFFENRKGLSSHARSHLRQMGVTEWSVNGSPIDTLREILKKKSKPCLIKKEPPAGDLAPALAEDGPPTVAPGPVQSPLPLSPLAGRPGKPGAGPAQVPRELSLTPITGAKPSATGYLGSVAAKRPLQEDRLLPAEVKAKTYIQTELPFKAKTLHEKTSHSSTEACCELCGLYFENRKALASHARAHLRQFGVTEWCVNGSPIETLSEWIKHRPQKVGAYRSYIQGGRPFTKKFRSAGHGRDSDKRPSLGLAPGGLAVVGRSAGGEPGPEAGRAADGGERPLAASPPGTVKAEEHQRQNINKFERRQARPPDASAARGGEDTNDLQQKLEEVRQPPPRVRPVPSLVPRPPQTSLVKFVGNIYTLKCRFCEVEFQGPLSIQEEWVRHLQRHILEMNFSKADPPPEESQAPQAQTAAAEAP
Chain of HiBit-WIZ fusion protein (Q96SW2 whole entry, the tested form may be a part): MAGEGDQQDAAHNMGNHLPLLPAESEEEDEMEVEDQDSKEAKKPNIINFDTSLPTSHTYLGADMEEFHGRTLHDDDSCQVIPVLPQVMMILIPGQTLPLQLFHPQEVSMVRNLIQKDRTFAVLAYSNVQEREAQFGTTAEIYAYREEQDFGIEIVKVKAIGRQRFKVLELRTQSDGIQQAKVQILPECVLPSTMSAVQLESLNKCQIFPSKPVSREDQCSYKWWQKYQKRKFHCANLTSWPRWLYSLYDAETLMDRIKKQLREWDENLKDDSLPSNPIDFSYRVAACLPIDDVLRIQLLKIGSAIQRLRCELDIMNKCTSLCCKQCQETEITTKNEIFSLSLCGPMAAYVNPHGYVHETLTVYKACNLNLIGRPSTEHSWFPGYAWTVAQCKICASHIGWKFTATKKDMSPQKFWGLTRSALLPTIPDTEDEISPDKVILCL
Chain of HiBit-WIZ fusion protein (Q16531 whole entry partner, the tested form may be a part): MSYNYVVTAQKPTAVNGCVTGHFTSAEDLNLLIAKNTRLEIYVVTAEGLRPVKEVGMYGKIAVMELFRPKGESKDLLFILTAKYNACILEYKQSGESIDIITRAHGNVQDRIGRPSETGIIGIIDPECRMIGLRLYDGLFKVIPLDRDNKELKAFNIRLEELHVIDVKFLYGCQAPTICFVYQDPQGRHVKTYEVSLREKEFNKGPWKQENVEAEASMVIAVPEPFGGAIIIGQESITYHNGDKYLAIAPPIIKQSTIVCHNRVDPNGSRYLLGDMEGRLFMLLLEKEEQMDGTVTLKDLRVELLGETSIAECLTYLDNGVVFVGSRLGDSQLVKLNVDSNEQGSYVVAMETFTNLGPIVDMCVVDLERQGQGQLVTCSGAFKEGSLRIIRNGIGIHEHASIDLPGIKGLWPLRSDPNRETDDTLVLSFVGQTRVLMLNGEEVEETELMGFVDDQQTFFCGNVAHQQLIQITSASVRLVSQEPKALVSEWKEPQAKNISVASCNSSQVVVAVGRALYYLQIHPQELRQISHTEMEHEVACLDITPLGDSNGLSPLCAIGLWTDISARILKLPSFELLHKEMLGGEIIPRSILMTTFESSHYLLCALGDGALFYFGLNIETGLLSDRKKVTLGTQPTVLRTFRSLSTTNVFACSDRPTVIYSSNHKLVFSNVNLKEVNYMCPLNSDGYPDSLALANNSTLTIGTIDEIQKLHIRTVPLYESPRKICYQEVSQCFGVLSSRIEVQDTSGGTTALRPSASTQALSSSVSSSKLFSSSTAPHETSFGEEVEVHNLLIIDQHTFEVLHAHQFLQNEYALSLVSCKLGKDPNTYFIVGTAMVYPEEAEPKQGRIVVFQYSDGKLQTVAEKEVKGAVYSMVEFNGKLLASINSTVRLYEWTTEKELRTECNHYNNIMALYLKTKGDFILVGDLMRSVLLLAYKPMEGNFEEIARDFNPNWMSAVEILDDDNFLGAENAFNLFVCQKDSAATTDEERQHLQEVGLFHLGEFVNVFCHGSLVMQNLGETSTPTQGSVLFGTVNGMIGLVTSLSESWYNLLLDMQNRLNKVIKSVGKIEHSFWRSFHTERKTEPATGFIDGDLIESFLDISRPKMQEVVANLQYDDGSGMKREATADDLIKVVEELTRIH

Where [1] appears, read: 100 minus Amax, read-out: % degradation of WIZ (100-Amax).
Where [2] appears, read: read-out: % degradation of WIZ (100-Amax), 100 minus Amax.

Our source for the Dmax, remaining activity and DC50 values is patent US11566022B2, “3-(5-methoxy-1-oxoisoindolin-2-yl)piperidine-2,6-dione derivatives and uses thereof” (NOVARTIS AG, priority 2019, dated 2023).

Where two headings read alike, the source gives them in different places.

For `O=C1CCC(N2Cc3cc(OC[C@H]4CCCCN4Cc4c(F)cccc4F)ccc3C2=O)C(=O)N1` (stereo partly drawn) [Compound I-147], the remaining activity at up to 25 µM was found to be 28.4% and the DC50 is 1080 nM. For the same compound, under setting [1], the Dmax was found to be 71.6%.

In the case of `O=C1CCC(N2Cc3cc(OC[C@H]4CCCCN4Cc4ccc(O)cc4)ccc3C2=O)C(=O)N1` (stereo partly drawn) [Compound I-148], the remaining activity at up to 25 µM stood at 5.51% and the DC50 is 20 nM. For the same compound, the Dmax under setting [1] was 94.5%.

Consider `O=C1CCC(N2Cc3cc(OC[C@H]4CCCCN4Cc4cccnc4F)ccc3C2=O)C(=O)N1` (stereo partly drawn) [Compound I-149], for which the remaining activity at up to 25 µM was 43.1% and the DC50 came to 11400 nM. The Dmax under setting [1] stood at 56.9%.

Take `O=C1CCC(N2Cc3cc(OC[C@H]4CCCCN4Cc4cnc5ccccc5c4)ccc3C2=O)C(=O)N1` (stereo partly drawn) [Compound I-150]: the remaining activity at up to 25 µM was determined as 1.39% and the DC50 was found to be 17 nM. Further, the Dmax under setting [1] was determined as 98.6%.

In the case of `Cc1csc(CN2CCCC[C@@H]2COc2ccc3c(c2)CN(C2CCC(=O)NC2=O)C3=O)n1` (stereo partly drawn) [Compound I-151], the remaining activity at up to 25 µM is 34.9% and the DC50 came to 3430 nM. Moreover, under setting [1], the Dmax came to 65.1%.

On to `O=C1CCC(N2Cc3cc(OC[C@H]4CCCCN4Cc4ccc5ccccc5n4)ccc3C2=O)C(=O)N1` (stereo partly drawn) [Compound I-152], for which the remaining activity at up to 25 µM turned out to be 2.52% and the DC50 was found to be 48 nM. Under setting [1], the Dmax was 97.5%.

Take `CCc1cc(CN2CCCC[C@@H]2COc2ccc3c(c2)CN(C2CCC(=O)NC2=O)C3=O)ccc1C1CCN(C(=O)OC(C)(C)C)CC1` (stereo partly drawn) [Compound I-155, Tert-butyl 4-(4-(((2R)-2-(((2-(2,6-dioxopiperidin-3-yl)-1-oxoisoindolin-5-yl)oxy)methyl)piperidin-1-yl)methyl)-2-ethylphenyl)piperidine-1-carboxylate]: the remaining activity at up to 25 µM was found to be 24.9% and the DC50 worked out at 20 nM. In addition, the Dmax under setting [1] turned out to be 75.2%.

Consider `CCc1cc(CN2CCCC[C@@H]2COc2ccc3c(c2)CN(C2CCC(=O)NC2=O)C3=O)ccc1C1CCN(CC)CC1` (stereo partly drawn) [Compound I-157, 3-(5-(((R)-1-(3-ethyl-4-(1-ethylpiperidin-4-yl)benzyl)piperidin-2-yl)methoxy)-1-oxoisoindolin-2-yl)piperidine-2,6-dione], for which the remaining activity worked out at 37% and the DC50 was determined as 160 nM. Also, the Dmax under setting [2] turned out to be 63%.

Consider `CC(C)(C)c1ccc(CN2CCCC[C@@H]2COc2ccc3c(c2)CN(C2CCC(=O)NC2=O)C3=O)cc1` (stereo partly drawn) [Compound I-158], for which the remaining activity at up to 25 µM was 5.93% and the DC50 is 0.083 nM. The Dmax under setting [1] was found to be 94.1%.

With `O=C1CCC(N2Cc3cc(OC[C@H]4CCCCN4Cc4ccc(N5CCCCC5)cc4)ccc3C2=O)C(=O)N1` (stereo partly drawn) [Compound I-161, 3-(1-oxo-5-(((R)-1-(4-(piperidin-1-yl)benzyl)piperidin-2-yl)methoxy)isoindolin-2-yl)piperidine-2,6-dione], the remaining activity at up to 25 µM came out at 8.45% and the DC50 was found to be 0.37 nM. The Dmax under setting [1] stood at 91.5%.

Take `COC12CC(CN3CCCC[C@@H]3COc3ccc4c(c3)CN(C3CCC(=O)NC3=O)C4=O)(C1)C2` (stereo partly drawn) [Compound I-163, 3-(5-(((R)-1-((3-methoxybicyclo[1.1.1]pentan-1-yl)methyl)piperidin-2-yl)methoxy)-1-oxoisoindolin-2-yl)piperidine-2,6-dione]: the remaining activity at up to 25 µM stood at 29.5% and the DC50 turned out to be 29 nM. For the same compound, the Dmax under setting [1] was 70.5%.

Take `CCN1CCN(c2ccc(F)cc2CN2CCCC[C@@H]2COc2ccc3c(c2)CN(C2CCC(=O)NC2=O)C3=O)CC1` (stereo partly drawn) [Compound I-169, 3-(5-(((R)-1-(2-(4-ethylpiperazin-1-yl)-5-fluorobenzyl)piperidin-2-yl)methoxy)-1-oxoisoindolin-2-yl)piperidine-2,6-dione]: the remaining activity stood at 15.4% and the DC50 was determined as 34 nM. Under setting [2], the Dmax is 84.6%.

In the case of `O=C1CCC(N2Cc3cc(OC[C@H]4CCCCN4Cc4ccc(C5(C(F)(F)F)CC5)cc4)ccc3C2=O)C(=O)N1` (stereo partly drawn) [Compound I-173, 3-(1-oxo-5-(((R)-1-(4-(1-(trifluoromethyl)cyclopropyl)benzyl)piperidin-2-yl)methoxy)isoindolin-2-yl)piperidine-2,6-dione], the remaining activity at up to 25 µM came to 5.71% and the DC50 amounted to 0.22 nM. For the same compound, the Dmax under setting [1] is 94.3%.

`O=C1CCC(N2Cc3cc(OC[C@H]4CCCCN4Cc4cccc5c4NCCO5)ccc3C2=O)C(=O)N1` (stereo partly drawn) [Compound I-178, 3-(5-(((R)-1-((3,4-dihydro-2H-benzo[b][1,4]oxazin-5-yl)methyl)piperidin-2-yl)methoxy)-1-oxoisoindolin-2-yl)piperidine-2,6-dione]: the remaining activity at up to 25 µM was 21.3% and the DC50 is 20 nM. Further, under setting [1], the Dmax came to 78.7%.

As to `CCN1CCOc2cccc(CN3CCCC[C@@H]3COc3ccc4c(c3)CN(C3CCC(=O)NC3=O)C4=O)c21` (stereo partly drawn) [Compound I-179, 3-(5-(((R)-1-((4-ethyl-3,4-dihydro-2H-benzo[b][1,4]oxazin-5-yl)methyl)piperidin-2-yl)methoxy)-1-oxoisoindolin-2-yl)piperidine-2,6-dione], the remaining activity was found to be 26.1% and the DC50 came out at 5.7 nM. Further, the Dmax under setting [2] stood at 73.9%.

In the case of `O=C1CCC(N2Cc3cc(OC[C@H]4CCCCN4Cc4cccc5c4NC(=O)CO5)ccc3C2=O)C(=O)N1` (stereo partly drawn) [Compound I-180, 3-(1-oxo-5-(((R)-1-((3-oxo-3,4-dihydro-2H-benzo[b][1,4]oxazin-5-yl)methyl)piperidin-2-yl)methoxy)isoindolin-2-yl)piperidine-2,6-dione], the remaining activity at up to 25 µM was 84.7% and the DC50 is 20 nM. Besides, under setting [1], the Dmax came to 15.3%.

For `O=C1CCC(N2Cc3cc(OC[C@H]4CCCCN4CCOCc4ccccc4)ccc3C2=O)C(=O)N1` (stereo partly drawn) [Compound I-183, 3-(5-(((R)-1-(2-(benzyloxy)ethyl)piperidin-2-yl)methoxy)-1-oxoisoindolin-2-yl)piperidine-2,6-dione], the remaining activity at up to 25 µM is 13.9% and the DC50 came to 4 nM. Also, the Dmax under setting [1] amounted to 86.1%.

Turning to `O=C1CCC(N2Cc3cc(OC[C@H]4CCCCN4Cc4ccc5c(c4)OC(F)(F)O5)ccc3C2=O)C(=O)N1` (stereo partly drawn) [Compound I-184], the remaining activity at up to 25 µM stood at 7.28% and the DC50 turned out to be 0.47 nM. Under setting [1], the Dmax was 92.7%.

On to `O=C1CCC(N2Cc3cc(OC[C@H]4CCCCN4Cc4ccc(N5CCOCC5)nc4)ccc3C2=O)C(=O)N1` (stereo partly drawn) [Compound I-186, 3-(5-(((R)-1-((6-morpholinopyridin-3-yl)methyl)piperidin-2-yl)methoxy)-1-oxoisoindolin-2-yl)piperidine-2,6-dione], for which the remaining activity at up to 25 µM is 19.1% and the DC50 worked out at 4.3 nM. For the same compound, the Dmax under setting [1] was 80.8%.

Regarding `O=C1CCC(N2Cc3cc(OC[C@H]4CCCCN4Cc4ccc(C5=CCOCC5)cc4)ccc3C2=O)C(=O)N1` (stereo partly drawn) [Compound I-188, 3-(5-(((R)-1-(4-(3,6-dihydro-2H-pyran-4-yl)benzyl)piperidin-2-yl)methoxy)-1-oxoisoindolin-2-yl)piperidine-2,6-dione], the remaining activity at up to 25 µM was 13.4% and the DC50 stood at 0.35 nM. In addition, the Dmax under setting [1] came to 86.6%.
